Columns and labels:
MDA-MB-231 = assay: Anticancer activity against human MDA-MB-231 cells assessed as cell growth incubated for 24 hrs by MTT assay; assay type: functional, cell-based; details: MDA-MB-231, 24 h
SNB-19 = assay: Anticancer activity against human SNB-19 cells assessed as cell growth inhibition; assay type: functional, cell-based
A549 = assay: Anticancer activity against human A549 cells assessed as cell growth inhibition; assay type: functional, cell-based
LOX IMVI = assay: Anticancer activity against human LOX IMVI cells assessed as cell growth inhibition; assay type: functional, cell-based
OVCAR-3 = assay: Anticancer activity against human OVCAR-3 cells assessed as cell growth inhibition; assay type: functional, cell-based
[1] = Anticancer activity against human WHCO1 cells assessed as cell growth incubated for 24 hrs by MTT assay; assay type: functional, cell-based; details: WHCO1, 24 h
NCI-H460 = assay: Anticancer activity against human NCI-H460 cells assessed as cell growth incubated for 48 hrs by MTT assay; assay type: functional, cell-based; details: NCI-H460, 48 h
[2] = Anticancer activity against human U-87 MG cells assessed as cell growth inhibition; assay type: functional, U-87MG ATCC; details: read-out: LC50 (the source's name)
HCT-116 = assay: Anticancer activity against human HCT-116 cells assessed as cell growth inhibition; assay type: functional; details: read-out: LC50 (the source's name)

## O=C1Cc2ccc(Br)cc2N1
MDA-MB-231
  IC50: 74 µM

## CCCCCCCC/C=C/C=C/[C@@H](C)N
SNB-19
  IC50: 30 µM
A549
  IC50: 30 µM
LOX IMVI
  IC50: 30 µM
OVCAR-3
  IC50: 30 µM

## Clc1c[nH]c2cc(Br)ccc12
MDA-MB-231
  IC50: 73 µM

## C/C(=C\Cc1cc(O)c(C)cc1O)CC/C=C(\C)CC(=O)CC(C)C
[1]
  IC50: 9.5 µM

## CCCC(=O)O[C@@H]1C[C@H]2C[C@@H](O[C@@H]3O[C@@H](C)[C@@H](O)[C@@H](O)[C@H]3OC)C[C@@H](C[C@@H](C)/C=C/C=C\C[C@@H]3O[C@@H](C[C@@H]3C)[C@@H](O)C[C@H]3C[C@@]1(O)C(=O)O3)O2
NCI-H460
  IC50: 0.044 µM

## O=C1C[C@H]2S[C@H]3C[C@]2(C=C1Br)C1=C(N3)C(=O)c2[nH]cc3c2C1=NCC3 [DISCORHABDINE A]
[1]
  IC50: 0.017 µM

## CO[C@H]1[C@H](O[C@@H]2C[C@@H]3C/C=C/C(=O)O[C@H](CO)C[C@H](O)[C@@H]4C[C@H](C)[C@H](C/C=C\C=C\[C@H](C)C[C@H](C2)O3)O4)O[C@@H](C)[C@H](O)[C@H]1O
[2]
  CC50: 0.00038 µM
NCI-H460
  IC50: 0.012 µM

## Brc1ccc2c(Br)c[nH]c2c1
MDA-MB-231
  IC50: 118 µM

## CC.CCCCCCCC(=O)OC[C@@H]1C[C@H](O)[C@@H]2C[C@H](C)[C@H](C/C=C\C=C\[C@H](C)C[C@@H]3C[C@H](O[C@@H]4O[C@@H](C)[C@H](O)[C@@H](O)[C@H]4OC)C[C@H](C/C=C/C(=O)O1)O3)O2
[2]
  CC50: 0.061 µM
HCT-116
  CC50: 0.054 µM

— ChEMBL document CHEMBL5252595, “A Quarter Century of Marine Biodiscovery in Algoa Bay, South Africa” (J Nat Prod, 2023)
